How the values were obtained:
[1] = Corrosion weight loss test on steel coupons in HCl; parameters: Pitting Index: scale not given here
Description: (§1) Such “acceptable” levels of corrosion are application-specific.

[2] = Corrosion weight loss test on steel coupons in HCl; parameters: Pitting Index: scale not given here; remark: listed apart in the source
Description: as §1

[3] = Corrosion weight loss test on steel coupons in HCl; parameters: Pitting Index: scale not given here; remark: listed apart in the source
Description: as §1

[4] = Rotating Cylinder Electrode electrochemistry, charge transfer resistance; conditions: 5 mM inhibitor, 10 mM KI, 4 mol/L HCl, 2000 rpm, 80° C.; FIG. 6
Description: (§2) EIS can be used to monitor the corrosion rate of a system. The parameter of interest is the charge transfer resistance, Rct, which can be thought of the ‘resistance’ to corrosion. A metal test piece is used as the working electrode in a three-electrode electrochemical cell with the corrosive solution as electrolyte. Impedance data is obtained by applying a small alternating voltage to the working electrode and measuring the resulting current to obtain a value of impedance. This is done at a range of frequencies. Then, in order to extract the parameter of interest, the metal/inhibitor/electrolyte interfaces are modelled as an electrical equivalent circuit and the theoretical impedance is fitted to the data. […] Charge transfer resistance, Rct, is measured. Charge transfer resistance, Rct is a measure for corrosion resistance, and is inversely proportional to corrosion rate (CR). Therefore 1/Rct is proportional to CR.

[5] = as above; conditions: 5 mM inhibitor, 10 mM KI, 4 mol/L HCl, 2000 rpm, 80° C.; FIG. 6; remark: listed apart in the source
Description: as §2

[6] = as above; conditions: 5 mM inhibitor, 10 mM KI, 4 mol/L HCl, 2000 rpm, 80° C.; FIG. 6; remark: listed apart in the source
Description: as §2

[7] = as above; conditions: 5 mM inhibitor, 10 mM KI, 4 mol/L HCl, 2000 rpm, 80° C.; FIG. 6; remark: listed apart in the source
Description: as §2

[8] = Marine algal growth inhibition test ISO 10253; format: cell-based, Skeletonema costatum; conditions: Skeletonema costatum, cultures of the marine alga Skeletonema costatum; algal growth inhibition, 72 h, WAF in sea water, 10-1000 mg/L tested
Method: (§3) The acute toxicity of NMHQ to the marine algae Skeletonema costatum was tested. Cultures of the algae Skeletonema costatum were exposed to a series of concentrations of NMHQ. The test was carried out according to ISO protocol ‘ISO 10253 Water quality—Marine algal growth inhibition test with Skeletonema costatum and Phaeodactylum tricornutum’.
(§4) In addition to blank, concentrations of 10, 100, 1000 mg/L (WAF) in sea water were tested.

Skeletonema costatum = experiment: Marine algal growth inhibition test ISO 10253; format: cell-based
Method: as §3, §4

[9] = Corrosion weight loss test on steel coupons in HCl
Method: Experiments were carried out with coupons of the following steels: • 22Cr125 also designated 2205, a duplex alloy steel which is an iron-chromium-nickel-molybdenum alloy, used (among other things) to fabricate casing. • HS80™ (TradeMark of TENARIS), a low carbon steel used to fabricate coiled tubing. • N80, a medium carbon steel used to fabricate borehole casing. • 13Cr80, an alloy steel containing 13 wt % chromium without nickel, also used to fabricate borehole casing.
(1) Metal Type: Duplex Stainless Steel 22Cr125 Casing (2205 b6); 4 mol/L HCl, T=80° C., 3 Hours Exposure

[10] = 0.3000 wt % (10.97 mmol/L), 4 mol/L HCl, 80° C., 3 hours

c1ccc2c(c1)CCCN2Cc1cccc2ccccc12 [NMTHQ]
Pitting Index ([1]; 0.1368 wt % (5.00 mmol/L), no KI, 4 mol/L HCl, 80° C., 3 hours): 3 | Pitting Index ([1]; 0.1389 wt % (5.08 mmol/L) + KI 10 mmol/L): 0 | Pitting Index ([1]; 0.2065 wt % (7.55 mmol/L), 4 mol/L HCl, 80° C., 3 hours): 2 | Pitting Index [1, 10]: 0 | Pitting Index ([1]; 0.3013 wt % (11.02 mmol/L), 4 mol/L HCl, 80° C., 3 hours): 0 | Pitting Index ([1]; 0.3017 wt % (11.04 mmol/L), 4 mol/L HCl, 80° C., 3 hours): 0 | factor by which addition of 10 mM potassium iodide reduces the weight loss ([1]; N80, NMTHQ 4.0-5.1 mmol/L): 5.3 | Pitting Index ([2]; 0.0055 wt % (0.20 mmol/L), 4 mol/L HCl, 80° C., 3 hours): 5 | Pitting Index ([2]; 0.0273 wt % (1.00 mmol/L), 4 mol/L HCl, 80° C., 3 hours): 2 | Pitting Index ([2]; 0.11 wt % (4.02 mmol/L), 4 mol/L HCl, 80° C., 3 hours): 0 | Pitting Index ([2]; 0.1366 wt % (5.00 mmol/L) + KI 10 mmol/L): 0 | Pitting Index ([2]; 0.1366 wt % (5.00 mmol/L), no KI, 4 mol/L HCl, 80° C., 3 hours): 0 | Pitting Index ([2]; 0.192 wt % (7.02 mmol/L), 4 mol/L HCl, 80° C., 3 hours): 0 | factor by which addition of 10 mM potassium iodide reduces the weight loss ([2]; HS80, NMTHQ 4.0-5.1 mmol/L): 8.8 | Pitting Index ([3]; 0.1367 wt % (5.00 mmol/L), no KI, 4 mol/L HCl, 80° C., 3 hours): 4 | Pitting Index ([3]; 0.1382 wt % (5.06 mmol/L) + KI 10 mmol/L): 0 | Pitting Index [3, 10]: 0 | inhibition performance compared at equivalent molar concentrations (in words) ([3]; 13Cr80, 4 mol/L HCl, 80° C., 3 hours): superior to the known acid corrosion inhibitor, NMQCl | factor by which addition of 10 mM potassium iodide reduces the weight loss ([3]; 13Cr80, NMTHQ 4.0-5.1 mmol/L): 10.5 | 1/Rct (proportional to corrosion rate), NMHQ compared with NMQCl [4]: very similar results | 1/Rct (proportional to corrosion rate), NMHQ compared with NMQCl [5]: very similar results | 1/Rct (proportional to corrosion rate), NMHQ compared with NMQCl [6]: more effective inhibitor | 1/Rct (proportional to corrosion rate), NMHQ compared with NMQCl [7]: significant lower | EC50 at 72 h [8]: > 1000 µg/mL | EC90 at 72 h [8]: > 1000 µg/mL | NOEC(72 h) (Skeletonema costatum; algal growth inhibition, 72 h, WAF in sea water, 10-1000 mg/L tested): 1000 mg/L | aquatic toxicity (in words) (Skeletonema costatum; seawater under neutral conditions (pH 7.7-8.3)): zero aquatic toxicity | Pitting Index ([9]; 0.11 wt % (4.02 mmol/L) + KI 10 mmol/L, 2205 (b6)): 0 | Pitting Index ([9]; 0.11 wt % (4.02 mmol/L), no KI, 2205 b6, 4 mol/L HCl, 80° C., 3 hours): 4 | Pitting Index ([9]; 0.1367 wt % (5.00 mmol/L), KI 0, 2205 (b5)): 4 | Pitting Index ([9]; 0.1368 wt % (5.00 mmol/L) + KI 20 mmol/L, 2205 (b5)): 0 | Pitting Index ([9]; 0.1913 wt % (7.00 mmol/L), 2205 b6, 4 mol/L HCl, 80° C., 3 hours): 3 | Pitting Index ([9]; 0.30 wt % (10.97 mmol/L), 2205 b6, 4 mol/L HCl, 80° C., 3 hours): 0 | Pitting Index ([9]; 0.547 wt % (20.01 mmol/L), 2205 b6, 4 mol/L HCl, 80° C., 3 hours): 0 | inhibition performance compared at equivalent molar concentrations (in words) ([9]; 22Cr125, 4 mol/L HCl, 80° C., 3 hours): very similar to the known acid corrosion inhibitor NMQCl | factor by which addition of 10 mM potassium iodide reduces the weight loss ([9]; 2205 (b6), NMTHQ 4.0-5.1 mmol/L): 9.4

naphthylmethylquinolinium chloride [NMQCl, reference compound]
Pitting Index ([1]; 0.1534 wt % (5.02 mmol/L), 4 mol/L HCl, 80° C., 3 hours): 3 | Pitting Index ([1]; 0.3386 wt % (11.07 mmol/L), 4 mol/L HCl, 80° C., 3 hours): 0 | Pitting Index ([1]; 0.3394 wt % (11.10 mmol/L), 4 mol/L HCl, 80° C., 3 hours): 0 | Pitting Index ([2]; 0.0015 wt % (0.05 mmol/L), 4 mol/L HCl, 80° C., 3 hours): 5 | Pitting Index ([2]; 0.06225 wt % (2.04 mmol/L), 4 mol/L HCl, 80° C., 3 hours): 0 | Pitting Index ([2]; 0.1531 wt % (5.01 mmol/L), 4 mol/L HCl, 80° C., 3 hours): 0 | Pitting Index ([2]; 0.3366 wt % (11.01 mmol/L), 4 mol/L HCl, 80° C., 3 hours): 0 | Pitting Index ([3]; 0.1545 wt % (5.05 mmol/L), 4 mol/L HCl, 80° C., 3 hours): 5 | Pitting Index ([3]; 0.3466 wt % (11.33 mmol/L), 4 mol/L HCl, 80° C., 3 hours): 0 | 1/Rct (proportional to corrosion rate), NMHQ compared with NMQCl [4]: very similar results | 1/Rct (proportional to corrosion rate), NMHQ compared with NMQCl [5]: very similar results | Pitting Index ([9]; 0.123 wt % (4.03 mmol/L), 2205 b6, 4 mol/L HCl, 80° C., 3 hours): 4 | Pitting Index ([9]; 0.322 wt % (10.54 mmol/L), 2205 b6, 4 mol/L HCl, 80° C., 3 hours): 0 | Pitting Index ([9]; 0.612 wt % (20.00 mmol/L), 2205 b6, 4 mol/L HCl, 80° C., 3 hours): 0

Source: patent US10982337B2, “Corrosion inhibition” (SCHLUMBERGER TECHNOLOGY CORPORATION, priority 2015, dated 2021)
